Assay results reported in patent publication US12049483B2, “Selective and noncovalent inhibitors of oncogenic RAS mutants” (New York University, priority 2020, dated 2024).

Legend:
KRAS(G12V) = molecular target: T1, KRAS(G12V) (Homo sapiens, UniProt P01116, G12V); assay: BLI binding to KRAS(G12V); conditions: nucleotide state GTPγS
T1 construct: KRAS4B residues 1-174 containing G12C, G12V, G12D, G13D, Q61L, WT; His6 (N, cleaved yes); Avi-tag (N, cleaved yes); made in house; host or cells: E. coli BL21(DE3)
Description: Protein expression and purification. All proteins used for monobody development and binding assays, including RAS constructs (KRAS4B residues 1-174 containing G12C, G12V, G12D, G13D, Q61L, WT, NRAS(WT), and HRAS(WT)), Monobodies, and RAF-1 RBD (residues 51-131) were produced with an N-terminal tag containing His6, Avi-tag for biotinylation and a TEV protease recognition site using the pHBT vector. The proteins were produced in E. coli BL21(DE3). To produce biotinylated proteins, E. coli BL21(DE3) with the pBirA plasmid was used as the host and grown in the presence of 50 μM of biotin. Expressed proteins were purified using Ni-Sepharose columns (GE Healthcare) via gravitational flow, followed by dialysis in Tris buffered saline (TBS, 50 mM Tris-Cl pH7.5 containing 150 mM NaCl) for non-RAS proteins. TBS containing 20 mM MgCl2 and 0.5 mM DTT was used for RAS proteins. Samples were further purified using a Superdex 75 size exclusion column on AKTA Pure systems (GE Healthcare). HRAS(WT) and HRAS(G12C) (residues 1-166) used for crystallization was produced as a fusion protein with His6 and yeast SUMO at the N terminus using an in-house vector described previously. […]
Biolayer interferometry (BLI) analysis. […] BLI signals were analyzed using Octet Data Analysis software (Molecular Devices).

ERK activation (pERK) = assay: ERK activation in dox-inducible monobody-expressing cell lines; type: cell-based
Experimental: Cell signaling assay and quantification of immunoblots. Cells were lysed in RIPA buffer (50 mM Tris-Cl pH 8, 150 mM NaCl, 5 mM EDTA pH8, 0.1% SDS, 1% NP40) supplemented with protease inhibitors (Roche; 5892991001) and phosphatase inhibitors (54 mM β-glycerophosphate, 10 mM NaF, 1 mM sodium vanadate) for 15 minutes on ice, and centrifuged at 15,000 g for 15 minutes. The supernatant was collected and measured for total protein amount using BCA assay (Thermo Scientific; 23227). Lysate (7-20 μg per well) was loaded onto a pre-cast SDS gel (BioRad; 456-1096) followed by electrophoresis. The proteins were then transferred from the gel to a low fluorescence background PVDF membrane (Millipore; IPFL00010) or regular PVDF membrane (Millipore; ISEQ00010) depending on whether fluorescence or chemiluminescence detection was performed. Phospho-ERK was detected using a rabbit anti-pERK antibody (Cell Signaling; 9101S) and total ERK was detected using a rabbit anti-ERK antibody (Cell Signaling; 9102S). Monobody expression was detected using mouse anti-Flag antibody (Sigma; F3165) or anti-HA tag antibody (BioLegend; 901516). Loading control was detected with primary antibody against tubulin-alpha (Thermo Scientific, 62204) or against cytochrome oxidase (COX IV) (Li-Cor, 926-42214). The total RAS level was detected using a pan-RAS antibody (SCBT, sc-166691). The KRAS level was determined using a KRAS-specific antibody (Sigma, WH0003845M1). For fluorescence detection of immunoblots, the membranes were imaged with a Licor Odyssey Clx imager (Li-Cor Bioscience) using IRDye anti-Rabbit 800CW and anti-Mouse 680LT (Li-Cor Bioscience, 926-32211 and 926-68020, respectively) as secondary antibodies. […] Band intensities of western blot were analyzed with Image Studio Lite version 5.2 (Li-Cor Bioscience). To quantify protein abundance in the degradation experiment, the intensities of pERK, RAS, KRAS, and Flag/HA tag bands were first normalized against the loading control of the perspective blot, which were either tubulin-α, COX IV or total ERK, followed by subsequent normalization to the zero time point. […]

- koff (KRAS(G12V)): 0.007 s⁻¹
Sequence: VSSVPTKLEVVAATPTSLLISWDAPAVTVFFYVITYGETGHGVGAFQAFKVPGSKSTATISGLKPGVDYTITVYARGYSKQGPYKPSPISINYRT [12VC1]
- ERK activation in H358 cells (ERK activation (pERK); H358, after 24 and 48 hours, dox-induced expression or ARS1620 treatment): effectively inhibited
- ERK activation (ERK activation (pERK); KRAS(G12C) (H358 and H23) and KRAS(G12V) (PATU8902 and H441) cell lines, dox-induced expression): potently inhibited
